Assay results as given in publication PMC4012454 (Marine Drugs, 2014).

Legend:
sheep = details: in vivo; cited from earlier work
[1] = biological target: brevetoxin receptor (site five of voltage gated sodium channels); format: binding
brevenal receptor = format: binding

## C=C(C=O)C[C@@H]1C[C@H](O)[C@]2(C)O[C@@H]3C[C@@H]4O[C@@H]5C[C@]6(C)O[C@]7(C)CC[C@@H]8O[C@@H]9C[C@]%10(C)O[C@@H]%11C(C)=CC(=O)O[C@H]%11C[C@H]%10O[C@H]9C[C@@H](C)[C@H]8O[C@H]7C[C@H]6O[C@H]5C/C=C\[C@H]4O[C@H]3C[C@H]2O1 [brevetoxin, PbTx-2]
sheep
  increase in RL (pulmonary resistance): 221% ± 21%

## C=C/C=C\CC[C@H]1O[C@H]2CC[C@@]3(C)O[C@H]4[C@@H](O)C[C@@]5(C)O[C@@H](CC/C=C(C)/C(C)=C/C=O)[C@@H](C)C[C@H]5O[C@@H]4C[C@@H]3O[C@@H]2CC[C@@]1(C)O [Compound 3, brevenal]
[1]
  Ki: 1.13 ± 0.153 µM
Brevenal receptor
  Ki: 0.137 ± 0.016 µM
sheep
  bronchoconstriction (effect on RL): no effects observed
